Measurements taken from a melting point compilation (Tetko et al.; mined from patent text by program, amines drawn as free bases though some values may be those of a salt).

With `COc1ccc2c(c1)sc1nc(CO)cn12` the melting point was 202 to 205 °C. For `Cc1cc(C)c2nc(COc3ccc(CC4SC(=O)N(C(c5ccccc5)(c5ccccc5)c5ccccc5)C4=O)cc3)n(C)c2n1` (stereo not given), the melting point was 96 to 99 °C. In the case of `NC(=O)c1cn(Cc2ccccc2)c(CO)n1`, the melting point is reported as 204 to 207 °C. In the case of `CC(C)C[C@H](CC(=O)NC1CCCCC1)C(=O)OCc1ccccc1`, the melting point is reported as 99 to 102 °C. Work on `c1cnn(-c2ccnc(-n3cccn3)n2)c1` yielded a melting point of 152 to 153 °C. With `Cc1ccccc1-c1cn2c(n1)-c1ccccc1Nc1ncccc1-2` the melting point was 215 to 217 °C. `CSc1ncc(Br)c(N(C)NC(=O)c2c(Cl)cccc2Cl)n1` showed a melting point of 254 to 256 °C. `NP(N)(=O)NC(=O)c1ccc2ccccc2c1` showed a melting point of over 400 °C. `CCc1cccc(CC)c1NC(=O)C1c2ccccc2COc2ccc(Br)cc21` (stereo not given) showed a melting point of 234 to 235 °C. Work on `CCOC(=O)NNc1cc(-c2ccc(OC)cc2)c(-c2ccc(OC)cc2)nn1` yielded a melting point of 212 to 214 °C. `O=C(O)CCc1cn(Cc2ccc(OCc3ccccn3)cc2)cc1-c1ccccc1` gave a melting point of 109 to 110 °C. Compound `C=CS(=O)(=O)c1ccc(C(=O)O)cc1` has a melting point of 228 °C. `O=C(CNC(=O)c1ccc(N2CCN(C(=O)c3ccccc3C(F)(F)F)CC2)nn1)c1ccccc1` showed a melting point of 196 to 198 °C. `Cc1cc(-c2ccccc2)nc(SSc2nc(-c3ccccc3)cc(C)c2C#N)c1C#N` gave a melting point of 200 to 201 °C. With `Nc1cc(Cl)ccc1C(=O)c1cccc(O)c1` the melting point was 137 to 138 °C. With `C#CCn1c(-c2cc(Cl)nc(Cl)c2)nc(O)c(CC)c1=O` the melting point was 200 to 202 °C. `Cc1nccc(N2CCC(CN3CCN(C(=O)c4ccc(F)cc4)CC3)CC2)n1` gave a melting point of 127 to 128 °C. Work on `Cc1cccc(Nn2c(C)c(C)[nH]c2=S)c1` yielded a melting point of 230 °C. `CCCCCCCCc1ccc(C(=O)NN)cc1` showed a melting point of 90 °C. For `Cc1ccc(C(OS(C)(=O)=O)(C(F)(F)F)C(F)(F)F)cc1C(OS(C)(=O)=O)(C(F)(F)F)C(F)(F)F`, the melting point was 107 °C. `Cc1ccn(-c2ccc(C(=O)N3Cc4cccn4Cc4ccccc43)c(F)c2)n1` showed a melting point of 192 to 193 °C. `CSCc1nnnn1C1CCN(c2ccc(N3C[C@H](CNC(C)=O)OC3=O)cc2F)CC1` gave a melting point of 118 to 119 °C. In the case of `O=C(NCCCCCC(=O)c1ncco1)c1cc2ccccc2[nH]1`, the melting point is reported as 176 to 179 °C. Compound `COc1ccc2c(C(=O)O)cn(C(C)C)c2c1` has a melting point of 162 to 163 °C. Compound `OCCc1coc2c(O)cccc12` has a melting point of 116 to 117 °C. `Cc1c(-c2ccc(OCc3ccccc3)cc2)n(Cc2ccc(OCCN3C[C@@H]4CC[C@H]3C4)cc2)c2ccc(OCc3ccccc3)cc12` gave a melting point of 95 to 100 °C. With `CC(=O)NCC=C(c1ccc(-c2ccccc2)cc1)c1ccc(-c2ccccc2)cc1` the melting point was 246 to 249 °C. For `COc1ccc(S(=O)(=O)N(Cc2ccccc2)c2c(C(=O)O)cnc3c2cnn3-c2ccccc2)cc1`, the melting point was 108 to 110 °C. In the case of `COC(=O)C1=C(C)NC(C)=C(C(=O)OCCN2C(=O)c3ccccc3C2=O)C1c1cccc(C)c1` (stereo not given), the melting point is reported as 188 to 190 °C. In the case of `Nc1c2c(nc3ccccc13)-c1ccccc1SC2`, the melting point is reported as 211 to 212 °C. Compound `Cc1ccc(-c2cccc(OC3SCC(O)C(O)C3O)c2)nc1` (stereo not given) has a melting point of 185 to 189 °C. With `COc1cc(C2c3cc4c(cc3C(NC3=CC(=O)N(Cc5ccc(F)cc5)C3=O)C3COC(=O)C23)OCO4)cc(OC)c1O[Si](C)(C)C(C)(C)C` (stereo not given) the melting point was 182 to 184 °C. Compound `O=C(O)[C@@H]1C[C@H](C2CCCCC2)CN1C(=O)CP(=O)(O)CCCCc1ccccc1` has a melting point of 175 to 176 °C. In the case of `CCOCc1nc2c(N)nc3cc(OCc4cccc(C)c4)ccc3c2n1CC(C)C`, the melting point is reported as 207 to 208 °C. With `O=C(CCCOc1ccccc1OCc1ccccc1)C(F)(F)F` the melting point was 50 to 51 °C. Compound `COc1ccc(-n2nc(CO)c3c2CCC3)cc1` has a melting point of 88 to 89 °C. `OC1CSC(Oc2ccc(-c3cccnc3F)nc2Cl)C(O)C1O` (stereo not given) gave a melting point of 153 °C. In the case of `CCOC(=O)CNC(=O)C(=O)NCC(OC)OC`, the melting point is reported as 63 to 65 °C. `Cc1cc(OCc2ccc(-c3ccc(OC(F)(F)F)cc3)nc2C)ccc1OC(C)(C)C(=O)O` gave a melting point of 149 to 151 °C. Work on `CNC(=S)NCCSCc1c[nH]cn1` yielded a melting point of 96 to 98 °C. Compound `O=C(O)CCCCCCCCc1nc(-c2ccccc2)c(-c2ccccc2)o1` has a melting point of 83 to 85 °C. In the case of `CCOC(=O)c1c(C)nn2ccc3c(c12)CCO3`, the melting point is reported as 173 to 174 °C. In the case of `CCN(CC)CCNc1nc(N2CCCC2)nc2ccccc12`, the melting point is reported as 87 to 90 °C. `CNC(=S)C1(c2cccnc2)CCCCC1=CCOc1ccc([N+](=O)[O-])cc1` (stereo not given) gave a melting point of 201 to 202 °C. For `O=Cc1coc2ccc(OCc3ccccc3)cc2c1=O`, the melting point was 163 to 166 °C. Compound `CN1CC(c2cccc(OCc3ccc4ccccc4n3)c2)OC1=O` (stereo not given) has a melting point of 75 to 77 °C. `COC(=O)C1=C(C(OC)OC)NC(C)=C(C(=O)OCC(C)(C)C)C1c1ccccc1C#N` (stereo not given) showed a melting point of 130 to 131 °C. `CS(=O)(=O)c1ccc(-c2cnn(CC(F)(F)F)c(=O)c2NC2CCCO2)cc1` (stereo not given) gave a melting point of 128 to 129 °C. For `CC(C)(CO)NS(=O)(=O)c1cccc(NC(=O)c2cnn3c(C4CC4)cc(-c4ccc(C(F)(F)F)cc4)nc23)c1`, the melting point was 228 to 230 °C. `CCc1ccc(S(C)(=O)=O)c(C(=O)c2ccc(F)cc2)c1` gave a melting point of 145 to 147 °C. `COc1ccc2cccc3c2c1C(CC(=O)O)CC3` (stereo not given) showed a melting point of 147 °C. `CCCCc1nc2cccc(CC(=O)O)c2n1Cc1ccc(-c2ccccc2-c2nnn[nH]2)cc1` gave a melting point of 170 to 171 °C. In the case of `CCc1cn(C2CC(OC(C)=O)C(CCC(=O)Cc3c(Cl)cccc3Cl)O2)c(=O)[nH]c1=O` (stereo not given), the melting point is reported as 186 °C. `CCOC(=O)C1(C(C)C)OC2(O)C3CCCN3C(=O)C(C(C)C)N2C1=O` (stereo not given) gave a melting point of 103 to 104 °C. With `COc1cccc(CC(CO)NCCC(c2ccccc2)c2ccccc2)c1` (stereo not given) the melting point was 89 to 91 °C. In the case of `CCc1oc(-c2ccc(C(F)(F)F)cc2)cc1CCC(=O)O`, the melting point is reported as 94 to 95 °C. Work on `CC(C)(CO)COc1ccc(-n2cc(C(=O)O)cn2)cc1C#N` yielded a melting point of 188 to 190 °C. Compound `COc1ccc(Nc2ccc(F)cc2)cc1` has a melting point of 46 to 48 °C. `Clc1ccc2nc(-c3cccs3)c(-c3ccncc3)n2n1` gave a melting point of 208 to 210 °C. `CS(=O)(=O)c1ccc(-n2nc(C(=O)N3CCOCC3)cc2-c2ccc(-c3ccco3)cc2)cc1F` gave a melting point of 221 to 222 °C. Compound `O=c1[nH]c2cc(C(F)(F)F)c(N3CCOCC3)cc2n2c(=O)[nH]nc12` has a melting point of over 300 °C. With `CN(C)C1=NC(NC(=O)CC2CCCCC2)C(=O)N(c2ccccc2)c2ccccc21` (stereo not given) the melting point was 264 to 266 °C. `COC(=O)COc1ccc([C@H]2c3ccc(OCc4ccccc4)cc3OC[C@H]2c2ccccc2)cc1` (racemic) gave a melting point of 143 to 144 °C. For `COc1ccccc1N1CCN(C2(C(=O)c3ccc(Cl)cc3)CC2)CC1`, the melting point was 103 to 104 °C. For `Nc1cccc(N)c1Cl`, the melting point was 82 to 83.5 °C. With `COc1cc(F)c(C)cc1N` the melting point was 108 to 110 °C. For `C=CCOC(=O)C(=[N+]=[N-])C(=O)CC1CC(=O)N1` (stereo not given), the melting point was 83 °C. Work on `COC(=O)C(=O)c1ccc(OCCOc2ccc3ccncc3c2)cc1` yielded a melting point of 144 to 145 °C. `COC(=O)c1ccccc1NC(C#N)c1ccc(Br)cc1` (stereo not given) gave a melting point of 112 °C. For `COc1ccc(Cc2nc3n(c2Cc2ccc(OC)cc2)CCS3(=O)=O)cc1`, the melting point was 231 to 232 °C. Work on `Cc1ccc(CNC(=O)c2nc(N3CCOCC3)n(C)c(=O)c2O)cc1F` yielded a melting point of 166 to 167 °C. `CCCCCCCCCCCCCCCC(=O)OC(CCCCCCCCCCCCCC)C(=O)O` (stereo not given) showed a melting point of 55 to 56 °C. In the case of `CCc1nnc(-c2ccc(-c3ccc(C(=O)N4CCCc5cc6c(cc54)C4(CCN(C)CC4)CO6)cc3)c(C)c2)o1`, the melting point is reported as 241 to 243 °C. Work on `COc1ccc(C(F)(F)F)cc1C(=O)c1ccc(C#N)cc1` yielded a melting point of 88 °C. In the case of `CC(=O)Nc1cc2c(c(C(=O)O)c1)NCCC2`, the melting point is reported as 258 to 259 °C. In the case of `CC1CC2C(C(O)CC3(C)C2CCC3(O)C(=O)COCc2ccccc2[N+](=O)[O-])C2(C)C=CC(=O)C=C12` (stereo not given), the melting point is reported as 116 to 119 °C. Work on `O=C(O)C(=O)c1cn(Cc2ccc(F)cc2)c2ccc(OCCc3ccc(F)cc3)cc12` yielded a melting point of 171 to 173 °C. Compound `O=[N+]([O-])c1cc(Oc2ccccc2)ccc1OCc1ccccc1` has a melting point of 84 to 87 °C. `O=Cc1cc(-c2ccc(Cl)cc2Cl)ccc1OC(F)(F)F` showed a melting point of 62 to 63 °C. `COc1cc2c(c(OC)c1OC)C(=O)O[C@H]2CO` gave a melting point of 178 to 180 °C. `C[C@H]1CCCC[C@H]1Nc1c(C(N)=O)cnn2cccc12` showed a melting point of 155 °C. Work on `N#Cc1c(-c2cccs2)nn(-c2ccccc2)c1N` yielded a melting point of 165 to 167 °C. Compound `ClCc1c(Br)c(Br)c(CCl)c(Br)c1Br` has a melting point of 232 to 233 °C. For `COc1cc2ncnc(N3CCC(O)(CCI)CC3)c2cc1OC`, the melting point was 179 to 181 °C. For `CCS(=O)c1nnc2n1C=Cc1ccccc1C2` (stereo not given), the melting point was 98 to 99 °C. `N#CC=Cc1ccc(Cl)cc1C(=O)c1ccccc1Cl` gave a melting point of 137 to 139 °C. `Cc1nnnn1-c1ccc(/C(=C\C2CCCC2)C(=O)O)cc1F` showed a melting point of 182 to 185 °C. In the case of `COC(=O)Cc1c(-c2ccc3c(c2)OCO3)c2ccccc2n(Cc2ccccc2OC)c1=O`, the melting point is reported as 71 to 72 °C. For `COC(=O)c1ccc(C(=O)Nc2cc3c4c(c2)CCCC4(C)CCC3)cc1`, the melting point was 217 to 218 °C. Compound `CON(C)c1nc(C)cc(O)n1` has a melting point of 128 to 129 °C. With `CC(C)(C)OC(=O)N[C@@H]1CN[C@H]2CCO[C@H]21` (relative stereo) the melting point was 110 to 111 °C. With `O=[N+]([O-])C12C3C4C1C1(Cl)C2C3C41[N+](=O)[O-]` (stereo not given) the melting point was 145 to 147 °C. `CCCC12CCC(=O)C=C1c1c(cc(CC(=O)O)c(Cl)c1Cl)O2` (stereo not given) gave a melting point of 248 to 250 °C. `O=C1N(c2ccc(C(F)(F)F)cc2)CN2C(c3ccc(Cl)cc3)C(c3ccccc3)CN12` (stereo not given) showed a melting point of 184 to 187 °C. For `COC(=O)C#CC(=O)c1cc(OC)ccc1OC`, the melting point was 70 to 71 °C. `c1ccc(COc2ccc(-n3nnnc3C3CC3)cc2)cc1` showed a melting point of 118 °C. Work on `CCCc1c(OCCCSc2ccc(-c3nnn[nH]3)cc2)ccc(C(C)=O)c1O` yielded a melting point of 114 to 116 °C. In the case of `CC(C)Oc1cccc(C=C(C=O)C(C=O)=Cc2cccc(OC(C)C)c2)c1`, the melting point is reported as 116 to 117 °C. `O=C(O)c1cn(C2COC2)c2c(F)c(F)cc(F)c2c1=O` showed a melting point of over 300 °C. `O=C(O)CC1(c2cccc(Cl)c2)CNC(=O)C1` (stereo not given) gave a melting point of 178 to 181 °C.
